System: T1, endo-1,4-β-xylanase
T1 construct: gene GH10 xylanase; codon-optimised synthetic gene in pET26b(+); N-terminal PelB leader, C-terminal 6xHis, tags kept; ~81 kDa; E. coli BL21(DE3)
Assay: fluorescence of released CMU (ex […] nm, em […] nm), Lineweaver-Burk
Type: biochemical, uncultured bacterium
Conditions: pH 7, 37°C, 50 mM sodium phosphate

- Km: 32 ± 4.72 µM
Structure (SMILES): Cc1cc(=O)oc2cc(O[C@@H]3OC[C@@H](O[C@@H]4OC[C@@H](O)[C@H](O)[C@H]4O)[C@H](O)[C@H]3O)c(Cl)cc12 [CMU-X2, 6-chloro-4-methylumbelliferyl xylobioside]
